Among the data in paper PMC5248971 (Science signaling, 2016) are Kd values, retold here.

In the test the target is T1, OpuCA (Staphylococcus aureus, UniProt A0A0H2XHM3).
T1 sequence (A0A0H2XHM3 1-408): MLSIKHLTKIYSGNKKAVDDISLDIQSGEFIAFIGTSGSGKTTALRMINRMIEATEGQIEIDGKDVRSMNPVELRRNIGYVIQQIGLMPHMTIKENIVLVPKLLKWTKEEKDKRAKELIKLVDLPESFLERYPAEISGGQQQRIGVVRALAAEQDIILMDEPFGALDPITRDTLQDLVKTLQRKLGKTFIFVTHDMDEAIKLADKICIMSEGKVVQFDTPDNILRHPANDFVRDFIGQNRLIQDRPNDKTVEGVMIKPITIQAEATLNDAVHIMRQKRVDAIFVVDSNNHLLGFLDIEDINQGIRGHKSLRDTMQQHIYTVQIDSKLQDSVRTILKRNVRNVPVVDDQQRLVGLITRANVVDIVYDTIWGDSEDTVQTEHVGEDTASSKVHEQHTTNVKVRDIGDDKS
Format: binding.

One may read the Kd as a measure of binding affinity in units of concentration. Low readings indicate a tighter complex, high ones a looser complex.

`Nc1ncnc2c1ncn2[C@@H]1O[C@@H]2COP(=O)(O)O[C@H]3[C@@H](O)[C@H](n4cnc5c(N)ncnc54)O[C@@H]3COP(=O)(O)O[C@H]2[C@H]1O` [c-di-AMP] registered a Kd of 2.46 ± 0.14 µM.
